For orientation: inhibition means the drop in the measured response relative to a control, in per cent.

One experiment concerns the target T1, PDE4B (Homo sapiens, UniProt Q07343).
T1 construct: endogenous in cells; host or cells: A549
The experiment is described as follows: Protein degradation assay, western blot, PDE4B in A549 cells. The experiment is classed as cell-based. The conditions noted are these: 24 h treatment, 'as high as about' = upper value for the group, read-out: PDE4B degradation relative to DMSO. Here is the method:
Example B2. Protein Degradation Assay
A549 cells were grown in RPMI 1640 media supplemented with 10% fetal bovine serum, streptomycin, and penicillin. The cells were plated in 6-well plates at 300,000 cells/well in the growth media. After overnight incubation, the cells were treated with DMSO (control) or a compound at predetermined concentrations (e.g., 10 nM, 100 nM, 1 μM, 3 μM, or 10 μM) for 24 h at 37° C. under 5% CO2. Whole cell extracts were prepared using an immunoprecipitation (IP) lysis buffer. The cells were washed once in PBS, and the cell pellets were resuspended in the IP lysis buffer and incubated for 15 min on ice. Cells debris was removed by centrifugation and the cleared whole cell lysates were transferred to new tubes for further analysis.
For a western blot analysis, the whole cell protein extracts were separated on 4-12% SDS-polyacrylamide gels, transferred to nitrocellulose, and probed with primary antibodies. Membranes were subsequently washed and probed with IRDYE® secondary antibodies. The signals were detected using an ODYSSEY® Imaging System. The antibodies used in the assay included anti-PDE4B antibody; anti-PDE4D antibodies (top, bottom, and short isoform); β-actin mouse monoclonal antibody; IRDYE® 680RD goat anti-rabbit antibody; and IRDYE® 800CW goat anti-mouse antibody. The compounds provided herein are PDE4 protein degraders.

A further experiment has as its system TNF-α. Nature of the experiment: Cell-based TNF-α inhibition assay (LPS-induced PBMCs, Meso Scale). The conditions noted are these: PBMC, PBMCs pretreated 1 h, LPS 100 ng/mL 18-24 h, percentage of stimulated DMSO control; for inhibition at 0.1 µM: compound concentration 0.1 μM; for inhibition at 1 µM: compound concentration 1 μM. A digest of the protocol: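 Thawed primary PBMCs (200,000 cells/well, RPMI 1640 with 10% FBS) were pretreated with compound for 1 h, then stimulated with 100 ng/mL LPS for 18–24 h. Supernatant TNF-α was measured by Meso Scale, and activity was expressed as percent inhibition relative to the stimulated DMSO control.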

T1 sequence (Q07343 whole entry): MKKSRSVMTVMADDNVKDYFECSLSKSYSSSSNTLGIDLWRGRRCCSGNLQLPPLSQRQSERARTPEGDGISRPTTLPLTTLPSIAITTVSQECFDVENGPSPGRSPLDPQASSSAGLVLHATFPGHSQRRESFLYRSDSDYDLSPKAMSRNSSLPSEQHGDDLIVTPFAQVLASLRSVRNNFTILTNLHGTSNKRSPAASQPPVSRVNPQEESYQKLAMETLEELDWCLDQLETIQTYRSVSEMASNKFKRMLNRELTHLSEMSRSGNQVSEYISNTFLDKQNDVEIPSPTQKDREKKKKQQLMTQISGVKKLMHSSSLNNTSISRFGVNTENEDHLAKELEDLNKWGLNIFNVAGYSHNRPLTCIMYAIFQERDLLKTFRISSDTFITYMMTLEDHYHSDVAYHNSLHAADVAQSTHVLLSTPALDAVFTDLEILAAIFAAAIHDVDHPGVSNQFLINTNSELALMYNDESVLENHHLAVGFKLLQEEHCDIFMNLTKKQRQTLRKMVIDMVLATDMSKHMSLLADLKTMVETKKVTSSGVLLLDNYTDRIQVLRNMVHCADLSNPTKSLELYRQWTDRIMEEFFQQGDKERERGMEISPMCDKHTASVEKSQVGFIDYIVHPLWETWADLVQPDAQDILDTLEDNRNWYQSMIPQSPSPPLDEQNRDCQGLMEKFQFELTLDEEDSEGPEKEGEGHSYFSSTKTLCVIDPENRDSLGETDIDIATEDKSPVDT

Take `CCOc1cc([C@@H](CS(C)(=O)=O)N2C(=O)c3cc(CCCCCCCN4CCC(c5cc(F)cc6c5CN(C5CCC(=O)NC5=O)C6=O)CC4)cc(NC(C)=O)c3C2=O)ccc1OC` (stereo partly drawn) [Compound A1, N-(6-(7-(4-(2-(2,6-Dioxopiperidin-3-yl)-6-fluoro-1-oxoisoindolin-4-yl)piperidin-1-yl)heptyl)-2-((S)-1-(3-ethoxy-4-methoxyphenyl)-2-(methylsulfonyl)ethyl)-1,3-dioxoisoindolin-4-yl)acetamide]: on PDE4B, the Dmax was ≤ 70%. In addition, the inhibition at 0.1 µM in the experiment with TNF-α is ≥ 60%.

In the case of `CCOc1cc([C@@H](CS(C)(=O)=O)N2C(=O)c3cccc(NC(=O)COCCOCCOCCOCCNc4cccc5c4C(=O)N(C4CCC(=O)NC4=O)C5=O)c3C2=O)ccc1OC` (stereo partly drawn) [Compound A4, 14-((2-(2,6-Dioxopiperidin-3-yl)-1,3-dioxoisoindolin-4-yl)amino)-N-(2-((S)-1-(3-ethoxy-4-methoxyphenyl)-2-(methylsulfonyl)ethyl)-1,3-dioxoisoindolin-4-yl)-3,6,9,12-tetraoxatetradecan-1-amide], the Dmax on PDE4B was ≤ 70%. The inhibition at 0.1 µM in the experiment with TNF-α is ≥ 60%.

In the case of `CCOc1cc([C@@H](CS(C)(=O)=O)N2C(=O)c3cccc(NC(=O)CCCCCCCCCCCNc4cccc5c4C(=O)N(C4CCC(=O)NC4=O)C5=O)c3C2=O)ccc1OC` (stereo partly drawn) [Compound A6, 12-((2-(2,6-Dioxopiperidin-3-yl)-1,3-dioxoisoindolin-4-yl)amino)-N-(2-((S)-1-(3-ethoxy-4-methoxyphenyl)-2-(methylsulfonyl)ethyl)-1,3-dioxoisoindolin-4-yl)dodecanamide], the Dmax on PDE4B was ≤ 70%.

Take `CCOc1cc([C@@H](CS(C)(=O)=O)N2C(=O)c3cc(CCCCCCCC4CCN(c5cccc6c5C(=O)N(C5CCC(=O)NC5=O)C6=O)CC4)cc(NC(C)=O)c3C2=O)ccc1OC` (stereo partly drawn) [Compound A8, N-(6-(7-(1-(2-(2,6-Dioxopiperidin-3-yl)-1,3-dioxoisoindolin-4-yl)piperidin-4-yl)-heptyl)-2-((S)-1-(3-ethoxy-4-methoxyphenyl)-2-(methylsulfonyl)ethyl)-1,3-dioxoisoindolin-4-yl)acetamide]: the Dmax on PDE4B was ≤ 70%. In the experiment on TNF-α, the inhibition at 0.1 µM was ≥ 60% and the inhibition at 1 µM is ≥ 60%.

As to `CCOc1cc([C@@H](CS(C)(=O)=O)N2C(=O)c3cccc(NC(=O)CCOCCOCCNc4cccc5c4C(=O)N(C4CCC(=O)NC4=O)C5=O)c3C2=O)ccc1OC` (stereo partly drawn) [Compound A9, 3-(2-(2-((2-(2,6-Dioxopiperidin-3-yl)-1,3-dioxoisoindolin-4-yl)amino)-ethoxy)ethoxy)-N-(2-((S)-1-(3-ethoxy-4-methoxyphenyl)-2-(methylsulfonyl)ethyl)-1,3-dioxoisoindolin-4-yl)propanamide], on PDE4B, the Dmax was ≤ 70%. For the same compound, in the experiment on TNF-α, the inhibition at 0.1 µM is ≥ 60% and the inhibition at 1 µM is ≥ 60%.

In the case of `CCOc1cc([C@@H](CS(C)(=O)=O)N2C(=O)c3cccc(NC(=O)CCOCCOCCOCCNc4cccc5c4C(=O)N(C4CCC(=O)NC4=O)C5=O)c3C2=O)ccc1OC` (stereo partly drawn) [Compound A10, 3-(2-(2-(2-((2-(2,6-Dioxopiperidin-3-yl)-1,3-dioxoisoindolin-4-yl)amino)ethoxy)-ethoxy)ethoxy)-N-(2-((S)-1-(3-ethoxy-4-methoxyphenyl)-2-(methylsulfonyl)ethyl)-1,3-dioxoisoindolin-4-yl)propanamide], the Dmax on PDE4B was ≤ 70%. In the experiment on TNF-α, the inhibition at 0.1 µM was < 20% and the inhibition at 1 µM was < 20%.

`CCOc1cc([C@@H](CS(C)(=O)=O)N2C(=O)c3cccc(NC(=O)CCCCCCCCNCc4ccc(OCc5scc6c5CN(C5CCC(=O)NC5=O)C6=O)cc4)c3C2=O)ccc1OC` (stereo partly drawn) [Compound A12, 9-((4-((5-(2,6-Dioxopiperidin-3-yl)-4-oxo-5,6-dihydro-4H-thieno[3,4-c]pyrrol-1-yl)methoxy)benzyl)amino)-N-(2-((S)-1-(3-ethoxy-4-methoxyphenyl)-2-(methylsulfonyl)ethyl)-1,3-dioxoisoindolin-4-yl)nonanamide]: the Dmax at PDE4B is ≤ 70%.

Take `CCOc1cc([C@@H](CS(C)(=O)=O)N2C(=O)c3cccc(NC(=O)CCCCCCCCN4CCC(c5cc(F)cc6c5CN(C5CCC(=O)NC5=O)C6=O)CC4)c3C2=O)ccc1OC` (stereo partly drawn) [Compound A13, 9-(4-(2-(2,6-Dioxopiperidin-3-yl)-6-fluoro-1-oxoisoindolin-4-yl)piperidin-1-yl)-N-(2-((S)-1-(3-ethoxy-4-methoxyphenyl)-2-(methylsulfonyl)ethyl)-1,3-dioxoisoindolin-4-yl)nonanamide]: the Dmax on PDE4B is ≤ 70%. In addition, the inhibition at 0.1 µM in the experiment on TNF-α was ≥ 60%.

Consider `CCOc1cc([C@@H](CS(C)(=O)=O)N2C(=O)c3cc(CCCCCCCCCCCCN4CCC(c5cc(F)cc6c5CN(C5CCC(=O)NC5=O)C6=O)CC4)cc(NC(C)=O)c3C2=O)ccc1OC` (stereo partly drawn) [Compound A14, N-(6-(12-(4-(2-(2,6-Dioxopiperidin-3-yl)-6-fluoro-1-oxoisoindolin-4-yl)piperidin-1-yl)dodecyl)-2-((S)-1-(3-ethoxy-4-methoxyphenyl)-2-(methylsulfonyl)ethyl)-1,3-dioxoisoindolin-4-yl)acetamide], for which the Dmax on PDE4B was ≤ 70%.

Take `CCOc1cc([C@@H](CS(C)(=O)=O)N2C(=O)c3cccc(NC(=O)CCCCCCCCC(=O)N[C@H](C(=O)N4C[C@H](O)C[C@H]4C(=O)NCc4ccc(-c5scnc5C)cc4)C(C)(C)C)c3C2=O)ccc1OC` [Compound A60, N^1-(2-((S)-1-(3-Ethoxy-4-methoxyphenyl)-2-(methylsulfonyl)ethyl)-1,3-dioxoisoindolin-4-yl)-N^10—((S)-1-((2S,4R)-4-hydroxy-2-((4-(4-methylthiazol-5-yl)benzyl)-carbamoyl)pyrrolidin-1-yl)-3,3-dimethyl-1-oxobutan-2-yl)decanediamide]: the Dmax on PDE4B is ≤ 70%.

For the compound `O=C1CCC(N2Cc3c(C#CC4CCN(C(=O)CCCCOc5cc(C(=O)Nc6c(Cl)cncc6Cl)ccc5OC(F)F)CC4)cccc3C2=O)C(=O)N1` (stereo not shown) [Compound B2, N-(3,5-Dichloropyridin-4-yl)-4-(difluoromethoxy)-3-((5-(4-((2-(2,6-dioxopiperidin-3-yl)-1-oxoisoindolin-4-yl)ethynyl)piperidin-1-yl)-5-oxopentyl)oxy)benzamide], the Dmax at PDE4B was ≤ 70%.

Take `O=C1CCC(N2Cc3cc(C4CCN(CCCCCCCOc5cc(C(=O)Nc6c(Cl)cncc6Cl)ccc5OC(F)F)CC4)c(F)cc3C2=O)C(=O)N1` (stereo not shown) [Compound B3, N-(3,5-Dichloropyridin-4-yl)-4-(difluoromethoxy)-3-((7-(4-(2-(2,6-dioxopiperidin-3-yl)-6-fluoro-1-oxoisoindolin-5-yl)piperidin-1-yl)heptyl)oxy)benzamide]: the Dmax on PDE4B is ≤ 70%.

For `O=C1CCC(N2C(=O)c3cccc(NCCCCCCCOc4cc(C(=O)Nc5c(Cl)cncc5Cl)ccc4OC(F)F)c3C2=O)C(=O)N1` (stereo not shown) [Compound B6, N-(3,5-Dichloropyridin-4-yl)-4-(difluoromethoxy)-3-((7-((2-(2,6-dioxopiperidin-3-yl)-1,3-dioxoisoindolin-4-yl)amino)heptyl)oxy)benzamide], the Dmax on PDE4B was ≤ 70%.

For `O=C1CCC(N2Cc3c(cc(F)cc3C3CCN(CCCCCCCCCCCCOc4cc(C(=O)Nc5c(Cl)cncc5Cl)ccc4OC(F)F)CC3)C2=O)C(=O)N1` (stereo not shown) [Compound B7, N-(3,5-Dichloropyridin-4-yl)-4-(difluoromethoxy)-3-((12-(4-(2-(2,6-dioxo-piperidin-3-yl)-6-fluoro-1-oxoisoindolin-4-yl)piperidin-1-yl)dodecyl)oxy)benzamide], the Dmax on PDE4B was ≤ 70%.

For the compound `Cc1ncsc1-c1ccc(CNC(=O)[C@@H]2C[C@@H](O)CN2C(=O)[C@@H](NC(=O)CCCCCCCCOc2cc(C(=O)Nc3c(Cl)cncc3Cl)ccc2OC(F)F)C(C)(C)C)cc1` [Compound B20, (2S,4R)-1-((S)-2-(9-(5-((3,5-Dichloropyridin-4-yl)carbamoyl)-2-(difluoromethoxy)phenoxy)nonanamido)-3,3-dimethylbutanoyl)-4-hydroxy-N-(4-(4-methylthiazol-5-yl)benzyl)pyrrolidine-2-carboxamide], the Dmax at PDE4B is ≤ 70%.

Take `Cc1ncsc1-c1ccc(CNC(=O)[C@@H]2C[C@@H](O)CN2C(=O)[C@@H](NC(=O)CCCCCCCCCCOc2cc(C(=O)Nc3c(Cl)cncc3Cl)ccc2OC(F)F)C(C)(C)C)cc1` [Compound B21, (2S,4R)-1-((S)-2-(11-(5-((3,5-dichloropyridin-4-yl)carbamoyl)-2-(difluoromethoxy)phenoxy)undecanamido)-3,3-dimethylbutanoyl)-4-hydroxy-N-(4-(4-methyl-thiazol-5-yl)benzyl)pyrrolidine-2-carboxamide]: the Dmax at PDE4B is ≤ 70%.
